“And” between values parts separate entries of the source, which are not always exact repeats. Equal values may be shown once. Read-outs that look alike come from different tables or passages of the source.
Experiments:
[1] = Microsomal stability (Human); format: in vitro ADME; conditions: after 60 minutes
Procedure: (§1) Microsomal stability of disclosed compounds was investigated. The following table indicates the percent of compound remaining after 60 minutes.

Plasma stability (Rat) = format: in vitro ADME; conditions: after 60 minutes
Procedure: (§2) Plasma stability of disclosed compounds was investigated. The following table indicates the percent of compound remaining after 60 minutes.

NMDAR2B = target: T1, NMDAR2B (Homo sapiens, UniProt Q13224); assay: NMDAR agonist assay, [3H]MK-801 binding, NMDAR2B expressing HEK cell membranes; format: biochemical; conditions: 50 μM glutamate; for EC50: read-out: NMDAR2B B: log EC50 (converted); for Emax / NMDAR2B A: % maximal [3H]MK-801 binding relative to 1 mM glycine: relative to 1 mM glycine; for Emax: read-out: NMDAR2B A: % maximal [3H]MK-801 binding relative to 1 mM glycine
T1 construct: expressed in transfected cells; host or cells: HEK cells (membrane extract)
Procedure: (§3) Assays were conducted as described by Moskal et al., “GLYX-13: a monoclonal antibody-derived peptide that acts as an N-methyl-D-aspartate receptor modulator,” Neuropharmacology, 49, 1077-87, 2005. These studies were designed to determine if the test compounds act to facilitate NMDAR activation in NMDAR2A, NMDAR2B, NMDAR2C or NMDAR2D expressing HEK cell membranes as measured by increases in [^3H]MK-801 binding.
(§4) In the assay, 300 μg of NMDAR expressing HEK cell membrane extract protein was preincubated for 15 minutes at […] in the presence of saturating concentrations of glutamate (50 μM) and varying concentrations of test compound (1×10^−15M-1×10^−7M), or 1 mM glycine. Following the addition of 0.3 μCi of [3H]MK-801 (22.5 Ci/mmol), reactions were again incubated for 15 minutes at 25° C. (nonequilibrium conditions). Bound and free [3H]MK-801 were separated via rapid filtration using a Brandel apparatus.
(§5) In analyzing the data, the DPM (disintegrations per minute) of [3H]MK-801 remaining on the filter were measured for each concentration of test compound or for 1 mM glycine. The DPM values for each concentration of a ligand (N=2) were averaged. The baseline value was determined from the best fit curve of the DPM values modeled using the GraphPad program and the log(agonist) vs. response (three parameters) algorithm was then subtracted from all points in the dataset. The % maximal [^3H]MK-801 binding was then calculated relative to that of 1 mM glycine: all baseline subtracted DPM values were divided by the average value for 1 mM glycine. The EC50 and % maximal activity were then obtained from the best fit curve of the % maximal [3H]MK-801 binding data modelled using the GraphPad program and the log(agonist) vs. response (three parameters) algorithm.
(§6) The tables below summarize the results for the wild type […] NMDAR2A, NMDAR2B, NMDAR2C, and NMDAR2D, and whether the compound is not an agonist (−), is an agonist (+), or is a strong agonist (++), where column A is based on the % maximal [3H]MK-801 binding relative to 1 mM glycine (−=0; <100%=+; and >100%=++); and column B is based on log EC50 values (0=−; ≥1×10^−9 M (e.g., −8)=+; and <1×10^−9 M (e.g., −10)=++).

[2] = IV pharmacokinetics in Sprague Dawley rats; format: in vivo; conditions: rat, 2 mg/kg, normal saline
Procedure: Sprague Dawley rats were dosed intravenously using a normal saline formulation containing 2 mg/kg of the compounds identified in the below table. The table below summarizes the results of the IV pharmacokinetics.

Plasma stability (Human) = format: in vitro ADME; conditions: after 60 minutes
Procedure: as §2

[3] = Microsomal stability (Rat); format: in vitro ADME; conditions: after 60 minutes
Procedure: as §1

[4] = Oral pharmacokinetics in Sprague Dawley rats (plasma, brain, CSF); format: in vivo; conditions: rat
Procedure: In another experiment, Sprague Dawley rats were dosed per os (oral gavage) using a normal saline formulation containing 10 mg/kg of the compounds identified in the table below. Plasma, brain, and CSF samples were analyzed at various time points over a 24 hour period. The table below summarizes the results of the oral pharmacokinetics, where the first three values (Tmax, Cmax and AUClast) are plasma values.

NMDAR2A = target: T2, NMDAR2A (Homo sapiens, UniProt Q12879); assay: NMDAR agonist assay, [3H]MK-801 binding, NMDAR2A expressing HEK cell membranes; format: biochemical; set-up: key to NMDAR2A B: log EC50: 0=−; ≥1×10^−9 M (e.g., −8)=+; <1×10^−9 M (e.g., −10)=++; conditions: 50 μM glutamate; for EC50: read-out: NMDAR2A B: log EC50 (converted); for Emax: 0.25 h, read-out: NMDAR2A A: % maximal [3H]MK-801 binding relative to 1 mM glycine; for Emax / NMDAR2A A: % maximal [3H]MK-801 binding relative to 1 mM glycine: relative to 1 mM glycine
T2 construct: expressed in transfected cells; host or cells: HEK cells (membrane extract)
Procedure: as §3, §4, §5, §6

T1 sequence (Q13224 27-1484, species assumed, other chains not shown): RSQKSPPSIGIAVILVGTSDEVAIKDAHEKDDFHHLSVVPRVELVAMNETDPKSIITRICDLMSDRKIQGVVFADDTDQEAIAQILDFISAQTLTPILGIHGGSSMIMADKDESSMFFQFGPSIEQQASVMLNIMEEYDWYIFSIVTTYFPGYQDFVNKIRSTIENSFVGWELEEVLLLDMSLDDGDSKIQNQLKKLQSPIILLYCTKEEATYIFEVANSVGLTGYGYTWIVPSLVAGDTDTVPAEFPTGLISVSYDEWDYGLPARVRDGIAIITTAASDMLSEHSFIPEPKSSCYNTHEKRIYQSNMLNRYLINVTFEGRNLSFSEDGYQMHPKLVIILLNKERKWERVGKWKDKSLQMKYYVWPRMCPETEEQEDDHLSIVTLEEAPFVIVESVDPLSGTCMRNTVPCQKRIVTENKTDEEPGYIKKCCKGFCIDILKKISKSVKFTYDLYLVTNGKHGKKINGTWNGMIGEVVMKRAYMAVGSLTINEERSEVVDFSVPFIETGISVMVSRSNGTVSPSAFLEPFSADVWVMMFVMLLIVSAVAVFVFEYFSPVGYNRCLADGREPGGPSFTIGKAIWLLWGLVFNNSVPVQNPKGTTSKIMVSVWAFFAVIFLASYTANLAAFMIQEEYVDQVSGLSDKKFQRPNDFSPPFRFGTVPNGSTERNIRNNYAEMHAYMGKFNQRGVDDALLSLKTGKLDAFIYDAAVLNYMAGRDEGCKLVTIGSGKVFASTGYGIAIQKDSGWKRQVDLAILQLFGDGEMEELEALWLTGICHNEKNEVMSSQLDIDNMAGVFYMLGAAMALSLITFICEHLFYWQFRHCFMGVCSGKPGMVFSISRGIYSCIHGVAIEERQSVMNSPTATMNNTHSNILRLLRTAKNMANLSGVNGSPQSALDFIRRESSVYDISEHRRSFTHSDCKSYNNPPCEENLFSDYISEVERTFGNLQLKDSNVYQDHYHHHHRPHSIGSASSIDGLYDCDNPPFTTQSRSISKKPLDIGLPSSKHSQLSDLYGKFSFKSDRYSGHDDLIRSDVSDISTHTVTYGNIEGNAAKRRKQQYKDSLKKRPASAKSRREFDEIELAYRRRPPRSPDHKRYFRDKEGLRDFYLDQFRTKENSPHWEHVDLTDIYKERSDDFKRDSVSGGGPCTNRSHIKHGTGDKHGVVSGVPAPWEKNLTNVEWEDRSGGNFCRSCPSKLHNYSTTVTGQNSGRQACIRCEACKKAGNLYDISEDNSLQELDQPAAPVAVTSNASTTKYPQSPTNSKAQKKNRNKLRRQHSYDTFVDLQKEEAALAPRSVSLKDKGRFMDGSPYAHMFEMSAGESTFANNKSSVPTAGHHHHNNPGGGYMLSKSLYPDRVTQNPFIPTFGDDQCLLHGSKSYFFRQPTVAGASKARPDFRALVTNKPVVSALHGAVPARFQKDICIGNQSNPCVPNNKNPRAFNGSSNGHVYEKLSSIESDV
T2 sequence (Q12879 23-1464, species assumed, other chains not shown): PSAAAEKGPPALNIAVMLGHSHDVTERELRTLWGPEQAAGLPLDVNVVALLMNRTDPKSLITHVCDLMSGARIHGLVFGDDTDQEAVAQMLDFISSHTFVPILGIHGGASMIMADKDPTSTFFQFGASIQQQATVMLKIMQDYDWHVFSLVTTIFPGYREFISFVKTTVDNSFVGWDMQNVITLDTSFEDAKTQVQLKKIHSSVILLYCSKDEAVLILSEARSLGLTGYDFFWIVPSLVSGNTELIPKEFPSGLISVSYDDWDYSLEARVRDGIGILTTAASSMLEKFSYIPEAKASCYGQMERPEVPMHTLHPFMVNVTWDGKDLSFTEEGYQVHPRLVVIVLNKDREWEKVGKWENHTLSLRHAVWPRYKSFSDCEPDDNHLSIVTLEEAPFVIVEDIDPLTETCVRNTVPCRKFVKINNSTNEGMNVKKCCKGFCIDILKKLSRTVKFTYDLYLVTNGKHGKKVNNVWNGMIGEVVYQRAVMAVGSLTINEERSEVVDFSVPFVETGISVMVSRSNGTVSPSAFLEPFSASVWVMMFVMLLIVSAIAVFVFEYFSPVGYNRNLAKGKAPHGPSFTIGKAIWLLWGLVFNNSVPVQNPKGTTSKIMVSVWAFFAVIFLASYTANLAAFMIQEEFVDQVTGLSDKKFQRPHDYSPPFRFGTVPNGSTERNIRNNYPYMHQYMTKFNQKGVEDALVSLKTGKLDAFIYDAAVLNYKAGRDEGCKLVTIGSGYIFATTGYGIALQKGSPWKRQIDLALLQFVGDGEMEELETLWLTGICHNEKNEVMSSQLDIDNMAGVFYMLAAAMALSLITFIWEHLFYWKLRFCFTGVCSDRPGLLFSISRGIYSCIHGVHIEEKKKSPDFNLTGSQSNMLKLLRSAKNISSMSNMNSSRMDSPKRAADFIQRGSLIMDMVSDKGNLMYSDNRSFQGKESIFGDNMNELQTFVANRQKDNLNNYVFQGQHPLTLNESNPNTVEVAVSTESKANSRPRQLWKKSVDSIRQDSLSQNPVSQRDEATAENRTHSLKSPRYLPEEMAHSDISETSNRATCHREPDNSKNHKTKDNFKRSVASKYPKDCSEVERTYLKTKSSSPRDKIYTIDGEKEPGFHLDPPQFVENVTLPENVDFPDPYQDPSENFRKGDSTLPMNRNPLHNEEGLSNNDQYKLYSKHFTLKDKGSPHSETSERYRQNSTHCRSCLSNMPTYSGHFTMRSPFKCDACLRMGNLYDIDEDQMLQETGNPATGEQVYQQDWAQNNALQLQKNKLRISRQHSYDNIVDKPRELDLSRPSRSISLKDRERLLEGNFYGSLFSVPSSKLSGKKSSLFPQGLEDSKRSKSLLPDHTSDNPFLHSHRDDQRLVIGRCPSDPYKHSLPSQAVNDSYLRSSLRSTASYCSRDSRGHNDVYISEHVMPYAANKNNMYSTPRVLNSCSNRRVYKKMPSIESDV

Structure (SMILES) | Microsomal (Human): percent of compound remaining [1] | Plasma (Rat): percent of compound remaining (Plasma stability (Rat)) | EC50 (NMDAR2B) | Emax (NMDAR2B) | Plasma (Human): percent of compound remaining (Plasma stability (Human)) | Microsomal (Rat): percent of compound remaining [3] | EC50 (NMDAR2A) | Emax (NMDAR2A) | NMDAR2B A: % maximal [3H]MK-801 binding relative to 1 mM glycine (NMDAR2B) | NMDAR2A A: % maximal [3H]MK-801 binding relative to 1 mM glycine (NMDAR2A) | also measured
O=C1NCCCC12CCCCN2 (single isomer, unassigned) [AX, 1,8-diazaspiro[5.5]undecan-7-one] | 93% | 99% | ≥ 1 nM | < 100% | 105% | 120% | < 1 nM | < 100% |  |  | AUC(0-t) ([2]; Sprague-Dawley, in vivo, iv): 1360 ng·h/mL; clearance ([2]; Sprague-Dawley, in vivo, iv): 24.4 mL/min/kg; half-life ([2]; Sprague-Dawley, in vivo, iv): 549 min; Cmax ([2]; Sprague-Dawley, in vivo, iv, read-out: Cmax): 1420 ng/mL; Vd ([2]; Sprague-Dawley, in vivo, iv, read-out: Vss): 3.31 L/kg; Tmax ([4]; Sprague-Dawley, po, per os, 10 mg/kg, plasma, read-out: Tmax): 1 h; AUC(0-t) ([4]; Sprague-Dawley, plasma, po, 10 mg/kg, per os): 6680 ng·h/mL; bioavailability ([4]; Sprague-Dawley, plasma, po, 10 mg/kg, per os 10 mg/kg): 98%; Cmax ([4]; Sprague-Dawley, plasma, po, 10 mg/kg, per os, 10 mg/kg, plasma, read-out: Cmax): 2560 ng/mL; CSF Cmax ([4]; per os, 10 mg/kg): 342.07 ng/mL; Brain Cmax ([4]; per os, 10 mg/kg): 1547.36 ng/mL
O=C1NCCCC12CCCCN2 (single isomer, unassigned) [AY, 1,8-diazaspiro[5.5]undecan-7-one] | 97% | 107% | < 1 nM |  | 104% | 114% | < 1 nM |  | + (<100%=+) | + (<100%=+) | AUClast [2]: 1658.09 ng·h/mL; Cl [2]: 20.15 mL/min/kg; Cmax [2]: 1552.63 ng/mL; T1/2 [2]: 9.65 h; Vss [2]: 3.88 L/kg; % F ([4]; per os 10 mg/kg): 79%; CSF Cmax ([4]; per os, 10 mg/kg): 701.8 ng/mL; Brain Cmax ([4]; per os, 10 mg/kg): 799.5 ng/mL; AUC(0-last) ([4]; per os, 10 mg/kg, plasma): 6528.55 ng·h/mL; Cmax ([4]; per os, 10 mg/kg, plasma): 3038.07 ng/mL; Tmax ([4]; per os, 10 mg/kg, plasma): 1 h
CC(C)C(=O)N1CCCC12CC=CCNC2=O (single isomer, unassigned) [GH-1, 1-isobutyryl-1,7-diazaspiro[4.6]undec-9-en-6-one] | 104% | 102% | < 1 nM | < 100% | 103% and 96% | 100% | < 1 nM | < 100% |  |  | 
CC(C)CN1CCCC12CC=CCNC2=O (single isomer, unassigned) [GI-1, 1-isobutyl-1,7-diazaspiro[4.6]undec-9-en-6-one] | 96% | 102% | < 1 nM | < 100% | 96% | 69% | < 1 nM | < 100% |  |  | 
O=C1NCC=CCC12CCCN2Cc1ccc(F)cc1 (single isomer, unassigned) [GJ-1, 1-(4-fluorobenzyl)-1,7-diazaspiro[4.6]undec-9-en-6-one] | 83% | 100% | < 1 nM | < 100% | 105% | 11% | < 1 nM | < 100% |  |  | 
O=C1NCC=CCC12CCCN2Cc1ccc(F)cc1 (single isomer, unassigned) [GJ-2, 1-(4-fluorobenzyl)-1,7-diazaspiro[4.6]undec-9-en-6-one] | 95% | 99% | < 1 nM |  | 95% | 3% | < 1 nM |  | + (<100%=+) | + (<100%=+) | 
O=C1N(Cc2ccc(F)cc2)CC=CCC12CCCN2 (single isomer, unassigned) [GK-2, 7-(4-fluorobenzyl)-1,7-diazaspiro[4.6]undec-9-en-6-one] | 94% | 97% | < 1 nM |  | 92% | 46% |  |  | + (<100%=+) | − (−=0) | NMDAR2A B: log EC50 (NMDAR2A): −
O=C1NCC=CCC12CCCN2Cc1ccccc1 (single isomer, unassigned) [GP-1, 1-benzyl-1,7-diazaspiro[4.6]undec-9-en-6-one] | 80% | 96% | < 1 nM | > 100% | 98% | 2% | < 1 nM | < 100% |  |  | 
O=C1NCC=CCC12CCCN2Cc1ccccc1 (single isomer, unassigned) [GP-2, 1-benzyl-1,7-diazaspiro[4.6]undec-9-en-6-one] | 89% | 85% | < 1 nM |  | 96% | 7% | < 1 nM |  | + (<100%=+) | ++ (>100%=++) | 
NC(=O)CN1CCCC12CC=CCNC2=O (single isomer, unassigned) [GQ-1, 2-(6-oxo-1,7-diazaspiro[4.6]undec-9-en-1-yl)acetamide] | 88% | 98% | ≥ 1 nM | > 100% | 98% | 87% | < 1 nM | < 100% |  |  | 
O=C1N(Cc2ccccc2)CC=CCC12CCCN2 (single isomer, unassigned) [GS-1, 7-benzyl-1,7-diazaspiro[4.6]undec-9-en-6-one] | 99% | 95% | < 1 nM | < 100% | 97% | 0% | < 1 nM | < 100% |  |  | 
O=C1N(Cc2ccccc2)CC=CCC12CCCN2 (single isomer, unassigned) [GS-2, 7-benzyl-1,7-diazaspiro[4.6]undec-9-en-6-one] | 90% | 99% | < 1 nM |  | 98% | 0% | ≥ 1 nM |  | + (<100%=+) | + (<100%=+) | 

From patent US20210047324A1 (Aptinyx Inc., priority 2018, published 2021)
